Assay results as given in patent US10842806B2, “Methods for treating ocular inflammatory disorders” (Massachusetts Eye and Ear Infirmary, priority 2011, dated 2020).

What was measured:
lymph node (LN) cells = assay: Proliferation, cytokine production and transcription factor expression of LN cells from AICAR-treated EAU mice; type: in vivo, C57BL/6 (WT) mice
Experimental: To extract LN cells, draining lymph nodes from 6 to 8 mice were isolated at sixteen days after immunization and pooled. Single cell suspensions were made using a cell strainer (BD, Franklin Lakes, N.J.). CD4 T cell-enriched fractions were prepared using CD4 Microbeads (Miltenyi Biotec GmbH, Bergisch Gladbach, Germany), and purity of the suspensions was determined by staining with anti-CD4 antibody (GK1.5, Biolegend, San Diego, Calif.) and flow cytometry. All experimental samples of CD4 T cell-enriched fractions were at least 95% CD4-positive. To measure cell proliferation, LN cells were resuspended at 5×10^5 cells per 200 μl of medium in 96-well flat-bottom plates. Cells were incubated for 72 hours and proliferation during the last 12 hours was measured by using a bromodeoxyuridine (BrdU) cell proliferation assay kit (Millipore, Billerica, Mass.). Supernatant in the culture medium was collected at 48 hours and cytokine production in the supernatant was measured by ELISA using the Quantikine mouse IFN-γ, IL-4, IL-10 and IL-17 kits (R&D system, Minneapolis, Minn.). To measure the expression of T-bet and RORγt, real-time PCR was carried out as described above using the following TaqMan gene expression assays: T-bet (Mm00450960_m1) and RORγt (Mm01261022_m1). Quantitative expression data were acquired and analyzed with a Step One Plus real-time PCR system (Applied Biosystems). In order to assess the in vivo effect of AICAR on the development of IRBP-reactive T cells, LN cells from control and AICAR-treated mice were stimulated with either IRBP or a non-specific T cell stimulator, anti-CD3. Proliferative response was measured with BrdU incorporation. […] In comparison, when the cells were treated with anti-CD3, there was no difference in T cell proliferation between the AICAR treated and control mice (FIG. 8B).

TNF-α = TNF-α ELISA in aqueous humor, retina and serum of EIU rats; type: in vivo, Lewis rats; settings: LPS + AICAR
Experimental: Male Lewis rats ranging from 6-8 weeks old (Charles River, Wilmington, Mass.) were used for these studies. To study the effects of AICAR pretreatment, AICAR and PBS (for placebo treatment) were delivered via intraperitoneal injection of AICAR (50 mg/kg or 100 mg/kg body weight; Sigma) diluted in 150 μl PBS or equal volume of PBS at 6 hours before and at the same time as LPS injection. Four experimental groups of rats were compared: (1) Normal: no treatment (2) AICAR: normal rats treated with AICAR 6 hours before examination; (3) LPS: EIU rats treated with PBS; (4) LPS+AICAR: EIU rats treated with AICAR. Two additional groups of rats were used to study the effects of AICAR (50 mg/kg) given either at the same time as LPS injection or at 6 hours after LPS injection. Under deep anesthesia, experimental rats were sacrificed and the retinas were carefully removed 24 hours after LPS injection, placed into 200 μl of lysis buffer and then sonicated. The lysate was centrifuged at 13,000 rpm for 10 minutes at 4° C. and supernatant was isolated. […] Cytokine and chemokine levels in the serum, aqueous humor, and retina were assessed using the rat CCL2/MCP-1 kit (Invitrogen, Camarillo, Calif.), the rat TNF-α kit (R&D system, Minneapolis, Minn.) and the rat ICAM-1 kit (R&D systems) by ELISA.

retinal vessels = assay: Protein leakage from retinal vessels (biotinylated BSA assay); type: in vivo, Lewis rats; settings: AICAR-pretreated EIU rats, 24 h after LPS; n=8; EIU rats 30.5±21.2
Experimental: Male Lewis rats ranging from 6-8 weeks old (Charles River, Wilmington, Mass.) were used for these studies. To study the effects of AICAR pretreatment, AICAR and PBS (for placebo treatment) were delivered via intraperitoneal injection of AICAR (50 mg/kg or 100 mg/kg body weight; Sigma) diluted in 150 μl PBS or equal volume of PBS at 6 hours before and at the same time as LPS injection. Four experimental groups of rats were compared: (1) Normal: no treatment (2) AICAR: normal rats treated with AICAR 6 hours before examination; (3) LPS: EIU rats treated with PBS; (4) LPS+AICAR: EIU rats treated with AICAR. Two additional groups of rats were used to study the effects of AICAR (50 mg/kg) given either at the same time as LPS injection or at 6 hours after LPS injection. Protein leakage from retinal vessels was assessed with a biotinylated bovine serum albumin (bBSA) assay as previously described (Trichonas et al. (2010) INVEST. OPHTHALMOL. VIS. SCI. 51:1677-1682). At 23 hours after LPS injection, rats were anesthetized and 0.14 ml of 43.7 mg/ml bBSA (Santa-Cruz Biotechnology, Santa Cruz, Calif.) was injected through the femoral vein. After one hour, the chest cavities of rats were opened, and the rats were perfused with lactated Ringer's solution via the left ventricle for 6 minutes. […] Supernatant was collected, and bBSA concentration was measured by enzyme-linked immunosorbent assay (ELISA). […]

[1] = AICAR-treated EAU mice, real-time PCR
[2] = LN cells from AICAR-treated EAU mice, ELISA

Structure (SMILES): NC(=O)c1ncn([C@@H]2O[C@H](CO)[C@@H](O)[C@H]2O)c1N [AICAR, 5-aminoimidazole-4-carboxamide-1-β-d-ribofuranoside]
- RORγt mRNA expression in CD4 T cells (lymph node (LN) cells; [1]): suppressed
- T-bet mRNA expression in CD4 T cells (lymph node (LN) cells; [1]): suppressed
- T cell proliferation (BrdU), anti-CD3 stimulation (lymph node (LN) cells; LN cells from AICAR treated vs control mice): no difference
- IFN-γ production by LN cells (lymph node (LN) cells; [2]): significantly suppressed
- IL-10 production by LN cells (lymph node (LN) cells; [2]): significantly suppressed
- IL-17 production by LN cells (lymph node (LN) cells; [2]): significantly suppressed
- Antigen-specific T cell proliferation (BrdU), IRBP stimulation (lymph node (LN) cells; LN cells from AICAR-treated vs untreated EAU mice, dose-dependent manner): suppressed
- TNF-α in serum (TNF-α; 3 hours after LPS, n=11, LPS 147.2 ± 337.1, p 0.475): 57.8 ± 143.1 pg/mL
- TNF-α in aqueous humor (TNF-α; 24 h after LPS, n=12, LPS 277.8 ± 123.9): 92.5 ± 140.5 pg/mL
- Protein leakage from retinal vessels (bBSA) (retinal vessels): 11.2±7.2 ng/mg total retinal protein
